pEC50, pKd: −log10 of the molar value. Calls of active or inactive are those of the source. The calls are words filed in the database; no cut-off is given here.
Key:
[1] = target: T1, Free fatty acid receptor 1 (Homo sapiens, UniProt O14842); test: Agonist activity at human GPR40 expressed in CHO cells incubated for 60 mins by FLIPR based Ca2+ mobilization assay; type: functional, cell-based
[2] = target: T1, Free fatty acid receptor 1; test: Agonist activity at human GPR40 expressed in CHO cells incubated for 60 mins by FLIPR based Ca2+ mobilization assay relative to gamma-linolenic acid; type: functional, cell-based; conditions: filed as agonist
[3] = Cytotoxicity in human HepG2 cells assessed as intracellular ATP content level at 30 uM by ATPlite-M assay relative to control; type: cell-based; conditions: time 1 day, read-out: Activity
[4] = test system: HepG2; test: Cytotoxicity in human HepG2 cells assessed as caspase-3/7 activity level at 30 uM by Caspase-GloTM 3/7 assay relative to staurosporine; type: cell-based; conditions: hepg2, 24 h, time 1 day
[5] = test system: Rattus norvegicus; test: Stimulation of insulin secretion in Wistar Kyoto N-STZ-1.5 rat model of streptozotocin-induced diabetes at 10 mg/kg, po followed by glucose challenge by ELISA; type: functional, organism-based
[6] = test system: Rattus norvegicus; test: Suppression of glucose tolerance in Wistar Kyoto N-STZ-1.5 rat model of streptozotocin-induced diabetes at 10 mg/kg, po followed by glucose challenge; type: functional, organism-based
[7] = target: T1, Free fatty acid receptor 1; test: Binding affinity to human GPR40 expressed in CHO cells by LC-MS analysis; type: cell-based
[8] = target: T1, Free fatty acid receptor 1; test: Agonist activity at human GPR40 expressed in CHO cells at 10 uM incubated for 60 mins by FLIPR based Ca2+ mobilization assay relative to gamma-linolenic acid; type: functional, cell-based
[9] = target: T1, Free fatty acid receptor 1; test: Binding affinity to human GPR40 expressed in CHO cells in presence of 10 and 100 nM […] by LC-MS analysis based competitive binding assay; type: cell-based; conditions: filed as agonist, dose nM 10-100
[10] = target: T1, Free fatty acid receptor 1; test: Binding affinity to human GPR40 expressed in CHO cells assessed as formation of protein-ternary complex by LC-MS analysis; type: cell-based; conditions: filed as agonist

T1 sequence (O14842 whole entry): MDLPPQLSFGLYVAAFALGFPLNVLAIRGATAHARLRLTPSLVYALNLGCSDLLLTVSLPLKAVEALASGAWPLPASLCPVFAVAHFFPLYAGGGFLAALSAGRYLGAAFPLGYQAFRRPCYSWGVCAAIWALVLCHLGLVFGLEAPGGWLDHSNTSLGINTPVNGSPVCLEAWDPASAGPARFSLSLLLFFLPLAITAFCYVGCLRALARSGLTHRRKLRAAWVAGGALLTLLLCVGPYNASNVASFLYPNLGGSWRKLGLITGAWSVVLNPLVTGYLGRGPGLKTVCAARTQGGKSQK

Structure (SMILES)	pEC50 [1]	Emax [2] [%]	viability at 24 h, 30 µM [3] [%]	Activity [4] [%]	other results
COc1ccc(CCCC(C)(C)C)c(N2CC(COc3cccc(C(CC(=O)O)C4CC4)c3)C2)c1 (stereo unspecified)	6.60				
COc1ccc(CN(C)CC(C)C)c(N2CCC(COc3cccc(C(CC(=O)O)C4CC4)c3)CC2)c1 (stereo unspecified)	6.00	110	80.7	-1.1	
CCOC(CC(=O)O)c1cccc(OCC2CCN(c3cc(OC)ccc3C(=O)N(CC(C)(C)C)c3cccc(C)n3)CC2)c1 (stereo unspecified)	7.13	104			
N[C@@H](CC(=O)N1CCn2c(nnc2C(F)(F)F)C1)Cc1cc(F)c(F)cc1F					Activity [5]: Active; Activity [6]: Active
COc1ccc(C(=O)N(CC(C)(C)C)c2cccc(C)n2)c(N2CCC(COc3cc([C@H](CC(=O)O)C4CC4)ccn3)CC2)c1	7.08	109			
COc1ccc(CCC(C)(C)O)c(N2CCC(COc3cccc(C(CC(=O)O)C4CC4)c3)CC2)c1 (stereo unspecified)	6.01	109	76.6	0.1	
COc1ccc(F)c(N2CCC(COc3cccc(C(CC(=O)O)C4CC4)c3)CC2)c1 (stereo unspecified)	6.17	114	72.7	-1.7	
COc1ccc(F)c(-c2ccc(COc3cccc([C@@H](CC(=O)O)C4CC4)c3)cc2C2=CCCC2(C)C)c1	6.82	182			pKd [7]: 8.30
COc1ccc(CCCC(C)(C)C)c(-c2ccc(COc3cccc(C(CC(=O)O)C4CC4)c3)cc2)c1 (stereo unspecified)	6.39	105			
COCC(CC(=O)O)c1cccc(OCC2CCN(c3cc(OC)ccc3C(=O)N(CC(C)(C)C)c3cccc(C)n3)CC2)c1 (stereo unspecified)	6.92	104			
COc1ccc(C(=O)N(CC(C)(C)C)c2cccc(C)n2)c(N2CCC(COc3cc(C(CC(=O)O)C4CC4)ccn3)CC2)c1 (stereo unspecified)	7.77	112			
COc1ccc(C(=O)N(CC(C)(C)C)c2ccccn2)c(N2CCC(COc3cccc(C(CC(=O)O)C4CC4)c3)CC2)c1 (stereo unspecified)	7.59	110			
COc1ccc(CCCC(C)(C)C)c(N2CCC(Oc3cccc(C(CC(=O)O)C4CC4)c3)CC2)c1 (stereo unspecified)					Activity [8]: 22%
COc1ccc(C(=O)N(C)c2ccccn2)c(N2CCC(COc3cccc(C(CC(=O)O)C4CC4)c3)CC2)c1 (stereo unspecified)	6.74	105	83.6	-1.1	
COc1ccc(CCCC(C)(C)C)c(N2CCC(COc3cccc(C(CC(=O)O)C4CC4)c3)CC2)c1 (stereo unspecified)	7.96	106	0.1	26	Activity [9]: Active; Activity [10]: Active

Reference: ChEMBL document CHEMBL4725394 (J Med Chem, 2020)
